Measured values: patent US20260183297A1, “SELECTION OF PATIENTS FOR THE TREATMENT OF FADS1-MEDIATED DISEASES OR DISORDERS USING FADS-1 INHIBITORS” (AMGEN INC., priority 2022, published 2026)

Assays:
[1] = system: liver, EPI WAT and ING WAT; assay: RNA-Seq analysis of liver, EPI WAT and ING WAT; type: in vivo, mouse; conditions: 30 mg/kg, 54 days
Description: RNA was extracted by using the Qiagen RNeasy 96 Universal kit (QIAGEN, Germantown, MD). The concentration and quality of the isolated RNA samples were assessed and determined on an Agilent 4200 TapeStation system and had RNA integrity numbers more than 9.1. Adipose or liver RNA (250 ng) was used to prepare a cDNA library by using a protocol modified from the Illumina TruSeq Stranded mRNA kit (Illumina, San Diego CA). Briefly, after polyA^+ RNA selection, fragmentation, and priming, the fragmented RNA was transcribed to cDNA in the reaction of reverse transcription containing SuperScript™ II (Thermo Fisher Scientific—Invitrogen™, Waltham, MA) and RNase-out (Thermo Fisher Scientific—Invitrogen™, Waltham, MA) and, sequentially, the products of the first strand cDNA synthesis reaction were converted to double-stranded cDNAs and subjected to end repair, A-tailing, and adapter ligation by following the commercial instruction. The constructed libraries were amplified and barcoded using the PCR program: a denaturation step at 98° C. for 30 seconds, 15 cycles of 95° C. for 10 seconds, 60° C. for 30 seconds, and 72° C. for 30 seconds, and a 72° C. extension cycle for 5 minutes followed by a hold step at 4° C. Libraries were sequenced to a minimum depth of 30 million paired end reads on an Illumina HiSeq4000 with the 100 nt or 150 nt read length.
RNA-Seq sequencing reads of the mouse samples were aligned and processed using OSA aligner, which is implemented in the OmicSoft Array Suite (QIAGEN OmicSoft, Cary, NC), based on mouse genome version GRCm38 and gene model GENCODE v19. Read count quantification was performed to the gene level based on OmicSoft implementation of RSEM. Downstream analysis using the read count output was performed following the standard RNA-seq workflow of DESeq2 R/Bioconductor package. Briefly, raw read count was transformed and nonnalized using the Variance Stabilizing Transformation (VST) method. Principal component analysis (PCA) was carried out by the plotPCA function using top 1000 variable genes. Differential expression analysis based on the negative binomial distribution was performed using the DESeq function.
Gene expression was represented as normalized fragments per kilobase per million reads (FPKM). FPKM values were further normalized with a refinement of the commonly employed upper-quartile method that sets the FPKM to a value of 10 at the 70th percentile. Lowly expressed genes with fewer than five samples at FPKM≥1 were removed. Genes with Benjamini-Hochberg (BH)-adjusted P value <0.01 and fold change ≥2 or ≤0.5 were selected as DEGs. Volcano plots of differential expression analysis results were made using EnhancedVolcano R package (github.com/kevinblighe/EnhancedVolcano).
The selected DEGs were annotated by IPA (QIAGEN, Redwood City, CA) on canonical pathways and toxicity lists. Gene expression enrichment in Gene Ontology (GO), KEGG was analyzed by using Cluster Profiler R package with default parameters. Deconvolution analysis was performed using MuSiC software v0.2.0 to estimate relative cell type abundance in each mouse bulk tissue samples. The Tabula Muris single-cell RNA-seq data set was used as a reference for MuSiC algorithm. The analysis was done separately for each tissue types including EPI and ING WAT, and liver.

mouse FADS1 = target: T1, mouse FADS1 (Mus musculus, UniProt Q920L1); assay: Mouse FADS1 cell-based assay; conditions: in vitro; read-out: half-maximal inhibitory concentration (IC50) against mouse FADS1
T1 sequence (Q920L1 1-447): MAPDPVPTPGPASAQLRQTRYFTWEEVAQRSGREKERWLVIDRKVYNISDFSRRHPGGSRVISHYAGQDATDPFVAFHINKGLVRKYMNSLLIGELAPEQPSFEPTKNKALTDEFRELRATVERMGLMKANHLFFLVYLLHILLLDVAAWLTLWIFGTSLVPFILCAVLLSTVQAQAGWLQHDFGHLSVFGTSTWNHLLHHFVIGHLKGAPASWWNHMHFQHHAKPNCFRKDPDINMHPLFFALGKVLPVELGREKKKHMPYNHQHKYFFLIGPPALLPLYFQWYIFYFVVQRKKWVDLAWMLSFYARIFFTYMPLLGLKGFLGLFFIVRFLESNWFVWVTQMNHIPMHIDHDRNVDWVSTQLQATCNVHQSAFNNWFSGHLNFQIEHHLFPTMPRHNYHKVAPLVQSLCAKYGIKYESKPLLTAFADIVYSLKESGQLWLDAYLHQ
Description: HEK 293 cells in Dulbecco's Modified Eagle's medium (DMEM), 10% fetal bovine serum (FBS), 1× penicillin-streptomycin-glutamine (PSG) were mixed with FADS1 BacMam or FADS2 BacMam reagents at multiplicity of infection (MOI) ratio of 25 and plated in a in 96-well poly-D-lysine-coated plate. Plates were incubated in a 37° C., 5% CO2 for 24 hours. Cells were washed with DPBS and cells were incubated with […] of compound dilution in DPBS at 5% CO2, 37° C. for 20 minutes. Ten L of the substrate, ^13C5-DGLA (FADS1), or 13C-LA (FADS2) diluted in DPBS were added to the cells and incubated at 5% CO2, 37° C. for 30 minutes (FADS1) or 45 minutes (FADS2). Cells were then washed with DPBS and 50 μL of 2N NaOH were added to each well and incubated in a 65° C. oven for 1 hour for the saponification reaction. After cooling to room temperature, 22 μl of formic acid was added followed by the addition of 113 μl of acetonitrile with 1.5 μM ALA-d14 as the internal standard. Samples were then subjected to LC-MS/MS detection for the following analytes for the FADS1 reaction: ^13C5-DGLA and ^13C5-AA or the following analytes for the FADS2 reaction: ^13C18-LA, ^13C18-GLA, ^13C18-DGLA and ^13C18-AA. […]
The analyte peak areas were quantified by using the Analyst software (SCIEX, Framingham, MA). The percent of substrate to product conversion relative to untreated control were calculated (percent of control [POC]). […]

IC50 (mouse FADS1): 4 nM
SMILES: COc1ccn2c(=O)c(-c3cnn(CC(F)(F)C(F)(F)F)c3)c(C(F)(F)F)nc2c1 [Compound A, 8-methoxy-3-(1-(2,2,3,3,3-pentafluoropropyl)-1H-pyrazol-4-yl)-2-(trifluoromethyl)-4H-pyrido[1,2-a]pyrimidin-4-one]
downregulated pathways (IPA) in the liver ([1]; Compound A-treated WT DIO mice): downregulation of Acute Phase Response. AMPK Signaling, and Senescence pathways
upregulated pathways (IPA) in the liver ([1]; Compound A-treated WT DIO mice): upregulation of Calcium Signaling, PPARα/RXRα Activation, and Xenobiotic metabolism AHR Signaling pathways
Insulin Receptor Signaling pathway (IPA) in EPI WAT ([1]; DIO mice): increased
fatty acid oxidation-related genes (Cpt1a, Acox1, Acaa1a, Fgf21) in the liver ([1]; DIO mice): increased
inflammation-related genes (Cc12, Cd14, Cd68) in ING WAT ([1]; DIO mice): decreased
lipolysis (Lipe, Mg11, Pnpla2) and insulin-signaling genes (Insr, Irs1, Slc2a4) in EPI WAT ([1]; DIO mice): increased
cellular composition of EPI WAT (immune cell population) ([1]; DIO mice, relative to WT vehicle): decreases in T cells, B cells, and natural killer cells
